Reference: patent US5466700A (priority 1993, dated 1995)

How the values were obtained:
[1] = tested on: EEG amplitude in anesthetized dogs; conditions: dog, in vivo
[2] = tested on: seizure activity on the EEG; conditions: dog, in vivo

C1CCc2nnnn2CC1 [pentylenetetrazole]
EEG amplitude, left hemisphere (occipital frontal leads) [1]: 35.6 ± 8.0 μV | EEG amplitude, right hemisphere (occipital frontal leads) [1]: 31.5 ± 8.0 μV | increase in EEG amplitude [1]: 344% | cumulative dose at which seizure activity was observed [2]: 11 to 41 mg/kg | dogs with seizure activity after pentylenetetrazole [2]: Seizure activity was observed in all the dogs
